The source of these data is paper PMC8251711 (Angewandte Chemie (International Ed. in English), 2021).

The experiment concerns the target LAT1 (Homo sapiens, UniProt Q01650). Description: [3H]-gabapentin uptake competition assay in LN229 cells. In kind it is cell-based. To be noted: read-out: IC50, [3H]-gabapentin uptake competition.

LAT1, sequence (Q01650 whole entry): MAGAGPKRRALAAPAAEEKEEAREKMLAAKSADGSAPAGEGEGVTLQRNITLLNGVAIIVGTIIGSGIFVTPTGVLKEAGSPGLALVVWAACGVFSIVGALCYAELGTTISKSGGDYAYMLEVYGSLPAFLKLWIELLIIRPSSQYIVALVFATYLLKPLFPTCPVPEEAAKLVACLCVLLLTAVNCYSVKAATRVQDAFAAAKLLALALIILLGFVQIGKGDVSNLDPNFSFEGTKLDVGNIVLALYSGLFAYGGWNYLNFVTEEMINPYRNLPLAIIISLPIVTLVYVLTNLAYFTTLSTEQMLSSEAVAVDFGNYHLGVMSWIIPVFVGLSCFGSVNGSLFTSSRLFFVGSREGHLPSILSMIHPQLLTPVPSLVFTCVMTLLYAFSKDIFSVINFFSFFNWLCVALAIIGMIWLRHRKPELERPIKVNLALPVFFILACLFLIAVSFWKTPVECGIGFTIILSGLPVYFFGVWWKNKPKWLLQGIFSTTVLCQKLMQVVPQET
LAT1, sequence (P08195 102-630 partner): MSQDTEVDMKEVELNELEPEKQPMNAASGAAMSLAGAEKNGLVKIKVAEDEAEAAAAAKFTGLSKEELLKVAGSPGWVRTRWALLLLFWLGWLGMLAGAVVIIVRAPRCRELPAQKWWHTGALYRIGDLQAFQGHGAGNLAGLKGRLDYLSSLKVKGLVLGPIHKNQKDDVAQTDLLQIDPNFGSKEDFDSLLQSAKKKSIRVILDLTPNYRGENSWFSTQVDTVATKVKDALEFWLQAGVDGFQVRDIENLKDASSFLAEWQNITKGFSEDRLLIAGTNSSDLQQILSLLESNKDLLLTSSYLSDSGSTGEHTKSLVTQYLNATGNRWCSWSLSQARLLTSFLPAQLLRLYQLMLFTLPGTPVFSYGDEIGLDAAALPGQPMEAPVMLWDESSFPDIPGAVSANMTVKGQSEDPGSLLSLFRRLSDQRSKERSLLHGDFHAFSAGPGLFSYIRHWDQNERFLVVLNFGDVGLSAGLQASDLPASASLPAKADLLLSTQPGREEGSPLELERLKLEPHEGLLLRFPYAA

Broadly, the IC50 is the concentration that gives 50% inhibition. With `Nc1cc(COc2c(Cl)cc(C[C@H](N)C(=O)O)cc2Cl)c2oc(-c3ccccc3)nc2c1` [JPH203], the half-maximal inhibitory concentration (IC50) came to 29 nM.
